Measurements taken from patent publication US20210221822A1, “TRICYCLIC DERIVATIVES INHIBITOR, PREPARATION METHOD, AND APPLICATIONS THEREOF” (Jiangsu Hansoh Pharmaceutical Group Co., Ltd., priority 2018, published 2021).

How the values were obtained:
[1] = tested on: PI3Kα mutant cancer cells HGC-27 (E542K); assay: Cell Titer-Glo proliferation inhibition, HGC-27; assay type: cell-based; settings: Homo sapiens, 48 to 96 hours
Description: (§1) Experimental method: The proliferation inhibitory effect of the compounds of the examples on PI3Kα mutant cancer cell lines HCC1954, HGC-27 and MKN1 was determined by Cell Titer-Glo method. The cell lines were cultured in RPMI 1640 medium (Gibco #22400089) containing 10% FBS (Gibco #10091148) and 1% P/S (Hyclone #SV30010) at 37° C. and 5% CO2. Before the experiment, the cells were collected and counted, and then the cell density was adjusted. The cells were inoculated in a white 96-well plate (Corning #3610) at a density of 1000 to 10000 cells/well, and incubated in an incubator at 37° C., 5% CO2 overnight. The compound solution of different concentrations was added, and corresponding vehicle control was set at the same time. The cell plate was further incubated in an incubator at 37° C., 5% CO2 for 48 to 96 hours. The cell plate and its content were equilibrated to room temperature. 20 to 100 μL of Cell Titer-Glo solution (Promega #G7573) was added to each well, and the plate was shaked well and incubated at room temperature in the dark for 5 to 30 minutes. The chemiluminescence value was measured by the BioTek SynergyH1 microplate reader.
(§2) The percentage inhibition data of the well treated by the compounds of the examples was calculated through the vehicle control well on the plate {% inhibition rate=100−(test compound value/vehicle control value)×100}. The IC50 value was calculated by fitting the data of different concentrations and corresponding percentage inhibition rates to a four-parameter nonlinear logic formula with GraphPad prism.

[2] = target: T1, PI3Kγ (Homo sapiens, UniProt P48736); assay: ADP-Glo lipid kinase assay, PI3Kγ kinase activity; assay type: biochemical; settings: 0.4 nM enzyme, 120 min, 50 μM ATP
T1 construct: purchased Thermofisher PV4786
Procedure, shortened: (§3)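 ADP-Glo luminescence measured ADP formed by PI3Kα, β, γ or δ (0.1-2 nM working solution) with PIP2:3PS (50 μM added solution) and ATP in HEPES/MgCl2/NaCl/BSA buffer, 90 to 120 min at room temperature. % inhibition was set against DMSO and no-kinase controls, and IC50 came from a four-parameter fit.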

[3] = target: T2, PI3Kδ (Homo sapiens, UniProt O00329); assay: ADP-Glo lipid kinase assay, PI3Kδ kinase activity; assay type: biochemical; settings: 0.1 nM enzyme, 90 min, 100 μM ATP
T2 construct: purchased Carna 11-103
Procedure, shortened: as §3

[4] = tested on: PI3Kα mutant cancer cells HCC1954 (H1047R); assay: Cell Titer-Glo proliferation inhibition, HCC1954; assay type: cell-based; settings: Homo sapiens, 48 to 96 hours
Description: as §1, §2

[5] = target: T3, PI3Kα (Homo sapiens, UniProt P42336); assay: ADP-Glo lipid kinase assay, PI3Kα kinase activity; assay type: biochemical
T3 construct: purchased Promega V1721
Procedure, shortened: as §3

[6] = target: T4, PI3Kβ (Homo sapiens, UniProt P42338); assay: ADP-Glo lipid kinase assay, PI3Kβ kinase activity; assay type: biochemical; settings: 0.4 nM enzyme, 90 min, 100 μM ATP
T4 construct: purchased Carna 11-102
Procedure, shortened: as §3

[7] = tested on: PI3Kα mutant cancer cells MKN1 (E545K); assay: Cell Titer-Glo proliferation inhibition, MKN1; assay type: cell-based; settings: Homo sapiens, MKN-1, 48 to 96 hours
Description: as §1, §2

T3 sequence (P42336 whole entry): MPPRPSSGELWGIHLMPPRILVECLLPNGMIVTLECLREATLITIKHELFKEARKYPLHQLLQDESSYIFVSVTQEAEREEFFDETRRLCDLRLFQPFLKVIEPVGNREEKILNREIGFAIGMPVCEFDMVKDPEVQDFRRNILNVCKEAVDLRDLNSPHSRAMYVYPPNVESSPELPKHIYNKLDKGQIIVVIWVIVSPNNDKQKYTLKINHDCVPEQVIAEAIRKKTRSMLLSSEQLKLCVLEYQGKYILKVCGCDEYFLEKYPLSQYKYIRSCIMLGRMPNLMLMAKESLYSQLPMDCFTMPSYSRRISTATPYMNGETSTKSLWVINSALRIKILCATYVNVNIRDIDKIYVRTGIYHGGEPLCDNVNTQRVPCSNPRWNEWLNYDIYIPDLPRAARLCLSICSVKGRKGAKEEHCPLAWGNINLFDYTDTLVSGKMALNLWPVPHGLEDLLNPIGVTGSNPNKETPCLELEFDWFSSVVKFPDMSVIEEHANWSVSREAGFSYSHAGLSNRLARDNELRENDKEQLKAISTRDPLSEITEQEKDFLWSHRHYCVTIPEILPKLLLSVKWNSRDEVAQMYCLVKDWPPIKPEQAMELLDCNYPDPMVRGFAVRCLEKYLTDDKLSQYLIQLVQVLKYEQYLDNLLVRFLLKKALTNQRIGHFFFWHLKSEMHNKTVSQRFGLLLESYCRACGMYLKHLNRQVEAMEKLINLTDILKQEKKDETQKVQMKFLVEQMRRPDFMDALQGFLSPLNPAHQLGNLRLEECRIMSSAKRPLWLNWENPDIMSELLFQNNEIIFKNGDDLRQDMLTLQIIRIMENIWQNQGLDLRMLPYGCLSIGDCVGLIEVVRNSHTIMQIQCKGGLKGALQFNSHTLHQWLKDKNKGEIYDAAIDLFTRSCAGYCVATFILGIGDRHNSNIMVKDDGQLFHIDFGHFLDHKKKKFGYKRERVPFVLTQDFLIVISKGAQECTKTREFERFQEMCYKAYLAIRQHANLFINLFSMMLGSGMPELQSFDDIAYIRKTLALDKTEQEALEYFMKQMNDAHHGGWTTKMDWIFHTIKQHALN
T3 sequence (P27986 whole entry partner): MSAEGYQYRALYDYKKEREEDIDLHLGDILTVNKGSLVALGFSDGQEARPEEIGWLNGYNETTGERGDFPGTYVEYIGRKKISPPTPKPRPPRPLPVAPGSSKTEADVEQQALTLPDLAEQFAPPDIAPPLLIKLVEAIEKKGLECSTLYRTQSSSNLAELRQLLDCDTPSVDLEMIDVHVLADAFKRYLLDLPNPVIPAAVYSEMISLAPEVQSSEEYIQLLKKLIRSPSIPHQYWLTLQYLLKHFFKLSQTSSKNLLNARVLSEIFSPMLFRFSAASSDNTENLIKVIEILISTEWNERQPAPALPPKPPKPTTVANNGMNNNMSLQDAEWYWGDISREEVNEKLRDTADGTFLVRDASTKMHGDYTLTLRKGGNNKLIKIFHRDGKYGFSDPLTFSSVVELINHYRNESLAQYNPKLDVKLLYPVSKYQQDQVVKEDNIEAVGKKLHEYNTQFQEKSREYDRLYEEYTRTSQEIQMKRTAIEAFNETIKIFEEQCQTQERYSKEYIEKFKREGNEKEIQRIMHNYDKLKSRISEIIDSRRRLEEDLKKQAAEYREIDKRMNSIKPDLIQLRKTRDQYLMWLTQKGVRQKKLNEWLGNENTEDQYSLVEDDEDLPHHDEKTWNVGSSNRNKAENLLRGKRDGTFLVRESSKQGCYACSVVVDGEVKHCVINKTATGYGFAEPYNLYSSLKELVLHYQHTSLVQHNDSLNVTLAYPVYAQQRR
T4 sequence (P42338 whole entry): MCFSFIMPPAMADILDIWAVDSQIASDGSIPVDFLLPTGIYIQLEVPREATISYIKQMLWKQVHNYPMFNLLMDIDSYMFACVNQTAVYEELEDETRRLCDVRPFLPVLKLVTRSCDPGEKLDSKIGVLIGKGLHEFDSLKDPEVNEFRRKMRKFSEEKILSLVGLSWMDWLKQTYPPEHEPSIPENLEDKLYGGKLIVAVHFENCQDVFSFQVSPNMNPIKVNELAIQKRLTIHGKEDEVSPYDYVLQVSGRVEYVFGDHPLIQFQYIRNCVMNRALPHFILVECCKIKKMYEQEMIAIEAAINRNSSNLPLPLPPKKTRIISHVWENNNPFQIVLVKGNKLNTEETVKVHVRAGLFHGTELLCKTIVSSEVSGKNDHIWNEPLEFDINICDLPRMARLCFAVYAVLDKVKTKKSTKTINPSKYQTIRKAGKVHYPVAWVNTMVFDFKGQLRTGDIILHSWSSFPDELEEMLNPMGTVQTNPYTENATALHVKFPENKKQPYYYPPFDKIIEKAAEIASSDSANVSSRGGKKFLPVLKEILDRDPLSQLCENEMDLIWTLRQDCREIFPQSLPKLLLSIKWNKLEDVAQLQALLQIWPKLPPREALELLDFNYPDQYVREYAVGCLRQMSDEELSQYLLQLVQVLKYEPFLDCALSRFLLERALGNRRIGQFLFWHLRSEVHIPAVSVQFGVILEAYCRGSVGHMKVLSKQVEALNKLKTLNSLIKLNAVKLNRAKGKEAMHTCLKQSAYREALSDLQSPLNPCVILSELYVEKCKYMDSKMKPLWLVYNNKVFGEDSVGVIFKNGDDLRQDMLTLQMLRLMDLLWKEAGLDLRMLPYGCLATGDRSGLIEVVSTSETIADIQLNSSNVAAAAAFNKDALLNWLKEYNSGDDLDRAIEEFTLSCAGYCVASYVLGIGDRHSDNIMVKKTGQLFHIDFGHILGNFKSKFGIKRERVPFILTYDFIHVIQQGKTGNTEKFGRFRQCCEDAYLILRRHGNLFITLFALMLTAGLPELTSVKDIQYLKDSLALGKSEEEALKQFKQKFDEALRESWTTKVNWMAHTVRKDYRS
T4 sequence (P27986 whole entry partner): as the sequence (P27986 whole entry partner) above
T1 sequence (P48736 whole entry): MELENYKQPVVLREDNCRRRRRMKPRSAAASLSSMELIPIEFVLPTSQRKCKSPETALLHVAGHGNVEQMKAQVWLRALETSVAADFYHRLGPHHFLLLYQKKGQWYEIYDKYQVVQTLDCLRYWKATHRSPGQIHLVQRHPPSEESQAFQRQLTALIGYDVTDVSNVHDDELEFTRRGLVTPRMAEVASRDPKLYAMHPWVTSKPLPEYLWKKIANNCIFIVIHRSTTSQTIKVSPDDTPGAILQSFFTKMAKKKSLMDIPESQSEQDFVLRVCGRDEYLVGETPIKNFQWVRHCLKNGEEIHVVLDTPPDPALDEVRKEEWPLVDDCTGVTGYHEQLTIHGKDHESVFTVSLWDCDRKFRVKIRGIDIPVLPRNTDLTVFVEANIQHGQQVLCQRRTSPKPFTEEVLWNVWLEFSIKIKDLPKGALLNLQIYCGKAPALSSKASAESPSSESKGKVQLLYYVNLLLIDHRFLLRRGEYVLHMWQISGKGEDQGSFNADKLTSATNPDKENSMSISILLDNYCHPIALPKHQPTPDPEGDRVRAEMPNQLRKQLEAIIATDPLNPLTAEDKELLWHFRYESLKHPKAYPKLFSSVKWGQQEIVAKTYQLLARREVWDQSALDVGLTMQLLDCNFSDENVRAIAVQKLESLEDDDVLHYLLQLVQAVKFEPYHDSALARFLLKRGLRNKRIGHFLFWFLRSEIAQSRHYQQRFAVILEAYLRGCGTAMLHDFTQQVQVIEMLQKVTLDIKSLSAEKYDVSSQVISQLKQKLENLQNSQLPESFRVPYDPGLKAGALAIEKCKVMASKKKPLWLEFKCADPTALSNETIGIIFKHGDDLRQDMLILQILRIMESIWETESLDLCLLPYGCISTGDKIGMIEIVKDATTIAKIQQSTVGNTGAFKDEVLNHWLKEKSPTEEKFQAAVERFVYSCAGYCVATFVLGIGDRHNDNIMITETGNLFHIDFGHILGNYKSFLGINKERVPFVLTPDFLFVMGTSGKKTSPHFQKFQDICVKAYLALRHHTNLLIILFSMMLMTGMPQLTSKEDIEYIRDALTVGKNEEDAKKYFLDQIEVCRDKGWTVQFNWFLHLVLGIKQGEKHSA
T2 sequence (O00329 whole entry): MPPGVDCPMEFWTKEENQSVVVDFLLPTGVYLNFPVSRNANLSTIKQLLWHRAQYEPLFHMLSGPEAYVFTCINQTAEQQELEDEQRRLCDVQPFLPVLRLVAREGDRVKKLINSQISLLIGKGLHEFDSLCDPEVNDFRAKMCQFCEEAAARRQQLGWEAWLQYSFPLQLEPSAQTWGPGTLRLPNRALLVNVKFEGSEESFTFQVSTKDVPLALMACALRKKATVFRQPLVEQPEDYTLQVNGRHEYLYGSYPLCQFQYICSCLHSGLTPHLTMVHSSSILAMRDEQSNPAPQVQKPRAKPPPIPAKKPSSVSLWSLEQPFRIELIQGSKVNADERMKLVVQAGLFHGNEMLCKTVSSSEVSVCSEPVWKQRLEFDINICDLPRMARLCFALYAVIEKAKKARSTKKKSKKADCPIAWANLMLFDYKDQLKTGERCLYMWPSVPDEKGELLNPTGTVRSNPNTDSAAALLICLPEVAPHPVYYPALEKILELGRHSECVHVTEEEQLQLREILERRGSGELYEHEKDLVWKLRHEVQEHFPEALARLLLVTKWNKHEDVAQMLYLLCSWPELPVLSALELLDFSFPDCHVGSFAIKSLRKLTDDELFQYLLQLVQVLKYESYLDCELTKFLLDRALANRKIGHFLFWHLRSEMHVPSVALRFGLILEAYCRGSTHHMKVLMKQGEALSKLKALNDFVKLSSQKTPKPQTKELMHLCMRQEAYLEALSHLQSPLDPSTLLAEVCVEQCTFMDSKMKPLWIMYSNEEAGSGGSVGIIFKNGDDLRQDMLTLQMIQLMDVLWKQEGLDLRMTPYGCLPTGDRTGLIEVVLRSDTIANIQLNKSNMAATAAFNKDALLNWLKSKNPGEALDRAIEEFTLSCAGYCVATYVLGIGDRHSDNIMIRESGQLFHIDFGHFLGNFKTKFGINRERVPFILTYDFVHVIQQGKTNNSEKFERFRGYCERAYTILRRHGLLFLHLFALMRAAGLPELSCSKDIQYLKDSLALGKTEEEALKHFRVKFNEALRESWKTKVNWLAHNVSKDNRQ
T2 sequence (P27986 whole entry partner): as the sequence (P27986 whole entry partner) above

IC50 [1]: 358 nM | IC50 [2]: 116 nM | IC50 [3]: 71 nM | IC50 [4]: 134 nM | IC50 ([5]; ADP-Glo, 0.1 nM enzyme, 120 min, 50 μM ATP): 2.4 nM | Selectivity of PI3Kα vs PI3Kβ ([5]; ratio of IC50 PI3Kβ to IC50 PI3Kα): 170 | Selectivity of PI3Kα vs PI3Kγ ([5]; ratio of IC50 PI3Kγ to IC50 PI3Kα): 48 | Selectivity of PI3Kα vs PI3Kδ ([5]; ratio of IC50 PI3Kδ to IC50 PI3Kα): 30 | IC50 [6]: 407 nM | IC50 [7]: 304 nM
Compound: C[C@H](Nc1ccc2c(c1)OCCn1cc(N3C(=O)SC[C@H]3CC#N)nc1-2)C(N)=O [Example 119, (S)-2-((2-((R)-4-(cyanomethyl)-2-oxothiazolidin-3-yl)-5,6-dihydrobenzo[f]imidazo[1,2-d][1,4]oxazepin-9-yl)amino)propanamide]
